Reference: US12168012B2, “NLRP3 inflammasome inhibitors” (Novartis AG, priority 2018, dated 2024)

Tests used:
[1] = test system: NLRP3 inflammasome; assay: IL-1β secretion assay; type: cell-based; details: Homo sapiens, THP-1, 3 h, PMA-differentiated THP-1 cells, 15 μM nigericin, HTRF
Procedure, shortened: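 PMA-differentiated THP-1 cells stimulated with nigericin to trigger NLRP3-dependent IL-1β secretion, measured by HTRF after 3 h. Viability/pyroptosis monitored with PrestoBlue. IC50 from logistic fit of % inhibition vs concentration with Hill coefficient.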

[2] = test system: NF-kB-dependent TNF-α secretion; assay: TNF-α secretion assay (counterscreen); type: cell-based; details: Homo sapiens; THP-1 cells, Pam3CSK4-stimulated, 3 hours, HTRF
Procedure: Monocytic THP-1 cells were maintained according to providers' instructions in RPMI media as described above. Undifferentiated cells were plated at 50,000 cells per well in a 384-well flat-bottom cell culture plates (Greiner, #781986), and allowed to rest overnight. Experimental compounds were prepared and added as described above. TNF-α secretion was triggered by the addition of either 1 μg/mL LPS (Sigma, #L4391) or 100 ng/mL Pam3CSK4 (Invivogen, #tlrl-pms) depending on the experiment, and cells were incubated for 3 hours. 10 μL supernatant was removed, and TNF-α levels were monitored using an HTRF assay (CisBio, #62TNFPEC) according to manufacturers' instructions. Viability was monitored as described above.
IC50 values were calculated from the plot of percentage of inhibition versus the inhibitor concentration by a logistics fit according to: y=A2+(A1−A2)/(1+(x/IC50)^p) where y is the %-inhibition at the inhibitor concentration, x. A1 is the lowest inhibition value, i.e. 0%, and A2 the maximum inhibition value, i.e. 100%. The exponent, p, is the Hill coefficient. The curve fitting was conducted with an internally developed software suite. […]

`CC(C)c1nn(CC(=O)NCC(C)(C)CO)c(=O)c2cc3sc(Cl)cc3n12` [Ex 20, 2-(2-Chloro-5-isopropyl-8-oxothieno[2′,3′:4,5]pyrrolo[1,2-d][1,2,4]triazin-7(8H)-yl)-N-(3-hydroxy-2,2-dimethylpropyl)acetamide] showed an IC50 [1] of 59.8 nM and an IC50 [2] greater than 100 µM.

`CC(O)c1nn(CC(=O)Nc2ccncn2)c(=O)c2cc3sc(Cl)cc3n12` (centres unmarked) [Ex 3, 2-(2-Chloro-5-(1-hydroxyethyl)-8-oxothieno[2′,3′:4,5]pyrrolo[1,2-d][1,2,4]triazin-7(8H)-yl)-N-(pyrimidin-4-yl)acetamide] gave an IC50 [1] of 228 nM and an IC50 [2] greater than 100 µM.

For `CC(C)c1nn(CC(=O)Nc2ccncn2)c(=O)c2cc3sc(F)cc3n12` [Ex 6, 2-(2-Fluoro-5-isopropyl-8-oxothieno[2′,3′:4,5]pyrrolo[1,2-d][1,2,4]triazin-7(8H)-yl)-N-(pyrimidin-4-yl)acetamide], the IC50 [1] was 6.5 nM and the IC50 [2] was greater than 100 µM.

`CC(C)(O)c1nn(CC(=O)N[C@@H]2CCCNC2)c(=O)c2cc3sc(Cl)cc3n12` [Ex 79, (R)-2-(2-Chloro-5-(2-hydroxypropan-2-yl)-8-oxothieno[2′,3′:4,5]pyrrolo[1,2-d][1,2,4]triazin-7(8H)-yl)-N-(piperidin-3-yl)acetamide] showed an IC50 [1] of 244 nM and an IC50 [2] greater than 100 µM.

With `CC(C)c1nn(CC(=O)N[C@@H]2CCC[C@@H](O)C2)c(=O)c2cc3scnc3n12` [Ex 47, N-((1R,3R)-3-Hydroxycyclohexyl)-2-(5-isopropyl-8-oxothiazolo[5′,4′:4,5]pyrrolo[1,2-d][1,2,4]triazin-7(8H)-yl)acetamide] the IC50 [1] was 9.1 nM and the IC50 [2] was greater than 100 µM.

In the case of `CN1CCC[C@@H](NC(=O)Cn2nc(C3CC3)n3c(cc4sc(F)cc43)c2=O)C1` [Ex 35, (R)-2-(5-Cyclopropyl-2-fluoro-8-oxothieno[2′,3′:4,5]pyrrolo[1,2-d][1,2,4]triazin-7(8H)-yl)-N-(1-methylpiperidin-3-yl)acetamide], the IC50 [1] is reported as 48.1 nM and the IC50 [2] is reported as 40 µM.

In the case of `CC(C)c1nn(CC(=O)NC2CC2)c(=O)c2cc3scnc3n12` [Ex 51, N-Cyclopropyl-2-(5-isopropyl-8-oxothiazolo[5′,4′:4,5]pyrrolo[1,2-d][1,2,4]triazin-7(8H)-yl)acetamide], the IC50 [1] is reported as 138 nM and the IC50 [2] is reported as greater than 100 µM.

In the case of `CN1CCC[C@@H](NC(=O)Cn2nc(C3CC3)n3c(cc4sc(Cl)cc43)c2=O)C1` [Ex 37, (R)-2-(2-Chloro-5-cyclopropyl-8-oxothieno[2′,3′:4,5]pyrrolo[1,2-d][1,2,4]triazin-7(8H)-yl)-N-(1-methylpiperidin-3-yl)acetamide], the IC50 [1] is reported as 101 nM and the IC50 [2] is reported as greater than 100 µM.

`CC(C)c1nn(CC(=O)NC2(CO)CC2)c(=O)c2cc3sc(Cl)cc3n12` [Ex 111, 2-(2-Chloro-5-isopropyl-8-oxothieno[2′,3′:4,5]pyrrolo[1,2-d][1,2,4]triazin-7(8H)-yl)-N-(1-(hydroxymethyl)cyclopropyl)acetamide] showed an IC50 [1] of 111 nM and an IC50 [2] greater than 100 µM.

Compound `CC(C)c1nn(CC(=O)NC[C@@H](C)O)c(=O)c2cc3sc(Cl)cc3n12` [Ex 70, (R)-2-(2-Chloro-5-isopropyl-8-oxothieno[2′,3′:4,5]pyrrolo[1,2-d][1,2,4]triazin-7(8H)-yl)-N-(2-hydroxypropyl)acetamide] has an IC50 [1] of 34.9 nM and an IC50 [2] greater than 100 µM.

With `CC(C)c1nn(CC(=O)N[C@@H]2CCC(=O)NC2)c(=O)c2cc3sc(F)cc3n12` [Ex 33, (R)-2-(2-Fluoro-5-isopropyl-8-oxothieno[2′,3′:4,5]pyrrolo[1,2-d][1,2,4]triazin-7(8H)-yl)-N-(6-oxopiperidin-3-yl)acetamide] the IC50 [1] was 108 nM and the IC50 [2] was greater than 100 µM.

`CC(C)c1nn(CC(=O)N[C@@H]2CCCN(CC3CC3)C2)c(=O)c2cc3sc(Cl)cc3n12` [Ex 134, (R)-2-(2-Chloro-5-isopropyl-8-oxothieno[2′,3′:4,5]pyrrolo[1,2-d][1,2,4]triazin-7(8H)-yl)-N-(1-(cyclopropylmethyl)piperidin-3-yl)acetamide] gave an IC50 [1] of 0.7 nM and an IC50 [2] greater than 100 µM.

In the case of `CC(C)c1nn(CC(=O)N[C@@H]2C[C@@H]2F)c(=O)c2cc3sc(Cl)cc3n12` [Ex 52, 2-(2-Chloro-5-isopropyl-8-oxothieno[2′,3′:4,5]pyrrolo[1,2-d][1,2,4]triazin-7(8H)-yl)-N-((1R,2S)-2-fluorocyclopropyl)acetamide], the IC50 [1] is reported as 660 nM and the IC50 [2] is reported as greater than 100 µM.

Work on `CC(C)c1nn(CC(=O)N[C@@H]2CCC[C@@](C)(O)C2)c(=O)c2cc3sc(Cl)cc3n12` [Ex 27, 2-(2-Chloro-5-isopropyl-8-oxothieno[2′,3′:4,5]pyrrolo[1,2-d][1,2,4]triazin-7(8H)-yl)-N-((1R,3R)-3-hydroxy-3-methylcyclohexyl)acetamide] yielded an IC50 [1] of 18 nM and an IC50 [2] greater than 100 µM.

Work on `CC(C)c1nn(CC(=O)N[C@@H]2CCCN(C3CC3)C2)c(=O)c2cc3scnc3n12` [Ex 127, (R)-N-(1-Cyclopropylpiperidin-3-yl)-2-(5-isopropyl-8-oxothiazolo[5′,4′:4,5]pyrrolo[1,2-d][1,2,4]triazin-7(8H)-yl)acetamide] yielded an IC50 [1] of 4.2 nM and an IC50 [2] greater than 100 µM.

For `CC(C)(O)c1nn(CC(=O)N[C@@H]2CCC[C@@](C)(O)C2)c(=O)c2cc3sc(Cl)cc3n12` [Ex 83, 2-(2-Chloro-5-(2-hydroxypropan-2-yl)-8-oxothieno[2′,3′:4,5]pyrrolo[1,2-d][1,2,4]triazin-7(8H)-yl)-N-((1R,3R)-3-hydroxy-3-methylcyclohexyl)acetamide], the IC50 [1] was 16.2 nM and the IC50 [2] was greater than 100 µM.

`CC(O)c1nn(CC(=O)N[C@@H]2CCC[C@@](C)(O)C2)c(=O)c2cc3sc(Cl)cc3n12` (stereo partly drawn) [Ex 45, 2-(2-Chloro-5-(1-hydroxyethyl)-8-oxothieno[2′,3′:4,5]pyrrolo[1,2-d][1,2,4]triazin-7(8H)-yl)-N-((1R,3R)-3-hydroxy-3-methylcyclohexyl)acetamide] showed an IC50 [1] of 244 nM and an IC50 [2] greater than 100 µM.

Compound `CC(C)(O)c1nn(CC(=O)Nc2cccnc2)c(=O)c2cc3sc(Cl)cc3n12` [Ex 8, 2-(2-Chloro-5-(2-hydroxypropan-2-yl)-8-oxothieno[2′,3′:4,5]pyrrolo[1,2-d][1,2,4]triazin-7(8H)-yl)-N-(pyridin-3-yl)acetamide] has an IC50 [1] of 87.4 nM and an IC50 [2] greater than 100 µM.

For `CC(C)c1nn(CC(=O)N[C@@H]2CCCN(C)C2)c(=O)c2cc3sc(F)cc3n12` [Ex 32, (R)-2-(2-Fluoro-5-isopropyl-8-oxothieno[2′,3′:4,5]pyrrolo[1,2-d][1,2,4]triazin-7(8H)-yl)-N-(1-methylpiperidin-3-yl)acetamide], the IC50 [1] was 7.6 nM and the IC50 [2] was greater than 100 µM.

`Cc1cc2c(cc3c(=O)n(CC(=O)Nc4cccnc4)nc(C(C)C)n32)s1` [Ex 7, 2-(5-Isopropyl-2-methyl-8-oxothieno[2′,3′:4,5]pyrrolo[1,2-d][1,2,4]triazin-7(8H)-yl)-N-(pyridin-3-yl)acetamide] gave an IC50 [1] of 254 nM and an IC50 [2] greater than 100 µM.

`CC(C)c1nn(CC(=O)N[C@@H]2CCOC2)c(=O)c2cc3sc(Cl)cc3n12` [Ex 100, (R)-2-(2-Chloro-5-isopropyl-8-oxothieno[2′,3′:4,5]pyrrolo[1,2-d][1,2,4]triazin-7(8H)-yl)-N-(tetrahydrofuran-3-yl)acetamide] was tested, and the IC50 [1] was 182 nM and the IC50 [2] was greater than 100 µM.

Work on `CC(C)(O)c1nn(CC(=O)N[C@@H]2CCCN(CCF)C2)c(=O)c2cc3sc(Cl)cc3n12` [Ex 30, (R)-2-(2-Chloro-5-(2-hydroxypropan-2-yl)-8-oxothieno[2′,3′:4,5]pyrrolo[1,2-d][1,2,4]triazin-7(8H)-yl)-N-(1-(2-fluoroethyl)piperidin-3-yl)acetamide] yielded an IC50 [1] of 52.5 nM and an IC50 [2] greater than 100 µM.
